Target: T1, Serine/threonine-protein kinase 4 (Human, UniProt Q13043)
T1 sequence (Q13043 whole entry): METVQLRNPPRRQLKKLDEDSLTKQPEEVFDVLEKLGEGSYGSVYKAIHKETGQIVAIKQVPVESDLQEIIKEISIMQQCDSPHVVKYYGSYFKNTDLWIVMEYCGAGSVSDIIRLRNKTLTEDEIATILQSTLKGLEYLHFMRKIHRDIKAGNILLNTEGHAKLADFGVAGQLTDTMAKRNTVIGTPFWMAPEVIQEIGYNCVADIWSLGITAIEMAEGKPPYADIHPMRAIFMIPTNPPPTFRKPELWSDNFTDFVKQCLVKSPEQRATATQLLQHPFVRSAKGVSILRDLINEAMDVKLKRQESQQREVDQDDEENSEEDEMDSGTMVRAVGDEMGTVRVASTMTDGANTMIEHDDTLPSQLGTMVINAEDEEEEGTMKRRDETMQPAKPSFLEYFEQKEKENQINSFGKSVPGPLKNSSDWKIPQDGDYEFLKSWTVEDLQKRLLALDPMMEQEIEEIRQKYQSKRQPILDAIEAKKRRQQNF
Experiment: Biochemical Assay
Method: Biochemical IC50s were measured at Invitrogen using Z-lyte technology. Briefly, for STK4, the 2×STK4 (MST1)/Ser/Thr 07 mixture was prepared in 50 mM HEPES pH 7.5, 0.01% BRIJ35, 10 mM MgCl2, 1 mM EGTA. The final 10 μL Kinase Reaction consisted of 6.25-160 ng STK4 (MST1) and 2 μM Ser/Thr 07 in 50 mM HEPES pH 7.5, 0.01% BRIJ-35, 10 mM MgCl2, 1 mM EGTA. After the 1 hour Kinase Reaction incubation, 5 μL of a 1:100000 dilution of Development Reagent A was added. Compounds were screened in a 10 point titration with 3-fold serial dilutions starting at a concentration of 10 μM. The biochemical IC50s against other STK family members were measured similarly. The ATP concentration used matched the Km for each kinase.

Row | SMILES | IC50 [µM]
1 | Nc1ncc(-c2cccc3sccc23)cc1-c1ccc2c(c1)CCNC2=O [US10710978, Compound I-15] | < 0.04
2 | Cc1cc(S(=O)(=O)N(C)C2CC2)ccc1-c1cnc(N)c(-c2ccc3c(c2)CCNC3=O)c1 [US10710978, Compound I-46] | < 0.04
